Biological target: T1, TdHKT1;4-2 (Triticum turgidum, UniProt U5YMY4)
T1 construct: full-length coding region (ORF 1686 bp, 562 residues as printed) in pGEMXho, cRNA expressed in Xenopus laevis oocytes
T1 sequence (U5YMY4 1-561): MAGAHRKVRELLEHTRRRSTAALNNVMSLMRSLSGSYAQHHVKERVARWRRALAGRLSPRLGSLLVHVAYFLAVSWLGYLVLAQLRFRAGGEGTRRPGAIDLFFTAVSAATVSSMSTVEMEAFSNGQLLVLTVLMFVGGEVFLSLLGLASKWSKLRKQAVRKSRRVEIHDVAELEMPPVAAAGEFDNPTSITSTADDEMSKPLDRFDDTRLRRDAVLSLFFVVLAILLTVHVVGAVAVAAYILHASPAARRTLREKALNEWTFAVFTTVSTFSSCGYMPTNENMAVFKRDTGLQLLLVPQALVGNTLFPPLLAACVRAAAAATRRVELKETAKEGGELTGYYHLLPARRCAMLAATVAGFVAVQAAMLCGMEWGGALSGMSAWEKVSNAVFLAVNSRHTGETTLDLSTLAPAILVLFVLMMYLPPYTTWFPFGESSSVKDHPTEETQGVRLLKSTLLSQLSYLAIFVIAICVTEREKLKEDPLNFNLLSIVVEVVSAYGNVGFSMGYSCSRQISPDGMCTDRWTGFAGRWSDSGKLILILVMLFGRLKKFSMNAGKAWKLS
Assay: two-electrode voltage clamp, Xenopus oocytes
Assay type: cell-based
Conditions: 500 µM quinine; 1 mM external Na+ (glutamate salt); pH 5.5; inward and outward currents

C=C[C@H]1CN2CC[C@H]1C[C@H]2[C@H](O)c1ccnc2ccc(OC)cc12 [quinine]
% decrease of currents at 500 μM: ~ 25%
